Source: patent US20120119081A1, “INSECT-BASED MODEL FOR PHARMACO-KINETIC STUDIES” (priority 2009, published 2012)

Experiments:
[1] = Locust hemolymph kinetics after injection into the hemolymph (LCMS)
Protocol: The insects may be obtained from local suppliers or bred in house. The grasshoppers were reared under crowded conditions at 28° C. and a 12:12 dark:light photocycle and fed fresh grass and bran. Before experiments the grasshoppers were fed ecologically cultivated wheat for two weeks. Animals used are adult males (in some experiments females) between two to four weeks after adult emergence. Test compounds are administrated into the hemolymph by use of a Hamilton syringe and inserting the needle between two abdominal terga or administered intraintestinal by use of a catheter or a steel probe. At various time points after administration hemolymph samples are taken for quantitative determination of drug concentration in the hemolymph. The samples are snap-frozen and stored until analyses. Drug concentration is analysed by HPLC, LC/MSMS or other methods. In studies of drug retention various organs e.g. heart, fat bodies and brain are dissected at various times after drug administration. The tissues are washed, snap-frozen and stored until analyses. At analyses the tissues are homogenized/vortexed/sonicated and centrifuged. The drug concentration in the tissues is determined as above.
(§1) 40 ul of an approximately 5 mg/ml solution of quinidine was injected into the hemolymph of Locusts (Locusta migratoria). The test compound was administered by using a Hamilton syringe. At 5, 15, 45, 120, and 360 minutes after administration (10 ul) hemolymph was collected from each locust with a calibrated capillary tube by puncturing the ventral membrane between the head and the thorax and immediately blown into a tube containing 40 ul aqua dest and 100 ul of acetonitrile. Each sample was centrifuged for 5 minutes (10 000 g at 4° C.) and 100 ul of the supernatants were transferred to new test tubes for LCMS analysis.
as §1, with “The” for “40 ul of an approximately 5 mg/ml solution of quinidine was injected into the hemolymph of Locusts (Locusta migratoria). The”, “000g” for “000 g”
as §1, with “caffeine” for “quinidine”, “000g” for “000 g”
as §1, with “The” for “40 ul of an approximately 5 mg/ml solution of quinidine was injected into the hemolymph of Locusts (Locusta migratoria). The”, “000g” for “000 g”
Mianserin was injected into the hemolymph of Locusts (Locusta migratoria). The administered volume was 40 ul (administered by using a Hamilton syringe) at a concentration of 8.8 mg/ml. At 5, 15 and 45 minutes after administration (2×20 ul) hemolymph was collected from the locusts with a calibrated capillary tube by puncturing the ventral membrane between the head and the thorax and immediately blown into a tube containing 60 ul aqua dest and 200 ul of acetonitrile.

[2] = cited from earlier work; for Volume of distribution (in words): human / vertebrate, relative statement
[3] = cited from earlier work
[4] = Locusta migratoria, in vivo, 0.4 mg per locust (approximately)
[5] = locust, after intrahemolymphic administration, comparison between test compounds
[6] = Locusta migratoria, in vivo, 0.2 mg per locust (approximately)

Row | Structure (SMILES) | concentration at 5 min [1, 4] [ng/mL] | concentration at 15 min [1, 4] [ng/mL] | concentration at 45 min [1, 4] [ng/mL] | Hemolymph elimination / clearance (in words) [1, 5] | Volume of distribution (in words) [2] | other results
1 | O=C1CC2(CCCC2)CC(=O)N1CCCCN1CCN(c2ncccn2)CC1 [buspirone] | 10700 | 6500 | 3800 | increased elimination similar to haloperidol |  | 
2 | Cn1c(=O)c2c(ncn2C)n(C)c1=O [caffeine] | 29000 | 24000 | 23000 | non dose dependent hemolymph clearance | much lower volume of distribution compared to propranolol | concentration at 5 min [1, 6]: 9280 ng/mL; concentration at 15 min [1, 6]: 9010 ng/mL; concentration at 45 min [1, 6]: 8780 ng/mL; concentration at 120 min [1, 6]: 6820 ng/mL; concentration at 360 min [1, 6]: 5500 ng/mL
3 | CN(C)C(=O)C(CCN1CCC(O)(c2ccc(Cl)cc2)CC1)(c1ccccc1)c1ccccc1 [loperamide] | 5600 | 3000 | 1700 |  |  | Solubility (in words) [3]: less soluble
4 | CC(C)NCC(O)COc1cccc2ccccc12 (stereo not drawn) [propranolol] |  |  |  |  | much larger volume of distribution | Half life (in words) ([2]; human, compared to atenolol): much shorter half life
5 | O=c1n(CCCN2CCN(c3cccc(Cl)c3)CC2)nc2ccccn12 [trazodone] |  |  |  |  |  | Hemolymph elimination / clearance (in words) ([1]; in vivo): stable for 15 minutes
